Data as given in patent US11214803B2, “Modulators of YAP1 expression” (Ionis Pharmaceuticals, Inc., priority 2019, dated 2022).
Strand notation (5' to 3'): a small letter for the sugar, then the base; units joined by * are phosphorothioate-linked, units joined directly phosphodiester-linked; [ ] holds rarer units or linkages, { } end groups; capitals alone tell only the bases. k = constrained ethyl (cEt); [5mC] = 5-methylcytosine; d = 2'-deoxy (DNA)

Each substance was assayed on Yap1 mRNA (assay: Antisense inhibition of human Yap1 in A-431 cells by cEt gapmers, single dose (Example 2, RTS4814)). Conditions: Table 18; A-431 cells, 5,000 cells per well, free uptake, 2,000 nM modified oligonucleotide, approx. 48 hours; RTS4814; normalized to RIBOGREEN; Yap1 mRNA as percent of untreated control.
Assay type: cell-based
In short: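 Read-out is Yap1 mRNA as percent of untreated cells, by real-time RT-PCR (probe set RTS4814) normalized to total RNA via RIBOGREEN. Cells were A-431 dosed with 2,000 nM gapmer without transfection for approximately 48 hours.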
In the case of “1074500 (k[5mC]*kT*kA*d[5mC]*dA*dA*dT*dA*dA*d[5mC]*d[5mC]*dA*dT*k[5mC]*k[5mC]*k[5mC]; antisense) [Compound 1074500]”, the “YAP1 (% UTC)” value is reported as 10 % UTC.
With “1074532 (antisense kG*kA*kA*d[5mC]*dA*d[5mC]*dT*dA*dA*dA*d[5mC]*dT*dA*k[5mC]*kT*kT) [Compound 1074532]” the “YAP1 (% UTC)” value was 59 % UTC.
For “1074564 (antisense k[5mC]*kT*kG*dA*dA*dT*dT*d[5mC]*d[5mC]*dA*dA*dT*d[5mC]*kG*kA*kG) [Compound 1074564]”, the “YAP1 (% UTC)” value was 4 % UTC.

Same assay, conditions: Table 19; A-431 cells, 5,000 cells per well, free uptake, 2,000 nM modified oligonucleotide, approx. 48 hours; RTS4814; normalized to RIBOGREEN; Yap1 mRNA as percent of untreated control
With “1074501 (kA*k[5mC]*kT*dA*d[5mC]*dA*dA*dT*dA*dA*d[5mC]*d[5mC]*dA*kT*k[5mC]*k[5mC]; antisense) [Compound 1074501]” the “YAP1 (% UTC)” value was 9 % UTC.
“1074533 (antisense kT*kA*kG*dA*dA*d[5mC]*dA*d[5mC]*dT*dA*dA*dA*d[5mC]*kT*kA*k[5mC]) [Compound 1074533]” was tested, and the “YAP1 (% UTC)” value was 80 % UTC.
For “1074565 (antisense kA*k[5mC]*kT*dG*dA*dA*dT*dT*d[5mC]*d[5mC]*dA*dA*dT*k[5mC]*kG*kA) [Compound 1074565]”, the “YAP1 (% UTC)” value was 5 % UTC.

Same assay, conditions: Table 20; Yap1 mRNA, percent of untreated control; 3-10-3 cEt gapmers targeting SEQ ID NO.: 1 and 2
For “1074502 (kA*kA*k[5mC]*dT*dA*d[5mC]*dA*dA*dT*dA*dA*d[5mC]*d[5mC]*kA*kT*k[5mC]; antisense) [Compound 1074502]”, the “YAP1 (% UTC)” value was 31 % UTC.
With “1074534 (antisense kT*kA*kA*dT*dA*dG*d[5mC]*dT*d[5mC]*dT*dT*dT*d[5mC]*kT*kA*kG) [Compound 1074534]” the “YAP1 (% UTC)” value was 88 % UTC.
For “1074566 (antisense k[5mC]*kA*k[5mC]*dT*dG*dA*dA*dT*dT*d[5mC]*d[5mC]*dA*dA*kT*k[5mC]*kG) [Compound 1074566]”, the “YAP1 (% UTC)” value was 3 % UTC.

Same assay, conditions: Table 21; Yap1 mRNA, percent of untreated control; 3-10-3 cEt gapmers targeting SEQ ID NO.: 1 and 2
In the case of “1074503 (k[5mC]*kA*kA*d[5mC]*dT*dA*d[5mC]*dA*dA*dT*dA*dA*d[5mC]*k[5mC]*kA*kT; antisense) [Compound 1074503]”, the “YAP1 (% UTC)” value is reported as 29 % UTC.
For “1074535 (antisense kG*kT*kA*dA*dT*dA*dG*d[5mC]*dT*d[5mC]*dT*dT*dT*k[5mC]*kT*kA) [Compound 1074535]”, the “YAP1 (% UTC)” value was 5 % UTC.
For “1074567 (antisense kA*kA*k[5mC]*d[5mC]*dT*dA*d[5mC]*dT*d[5mC]*dA*d[5mC]*dT*dG*kA*kA*kT) [Compound 1074567]”, the “YAP1 (% UTC)” value was 38 % UTC.

Same assay, conditions: Table 22; Yap1 mRNA as percent of untreated control; 3-10-3 cEt gapmers; single dose
In the case of “1074504 (kT*k[5mC]*kG*dA*dG*dA*dT*dT*dT*dA*dA*dA*dT*kA*kA*kG; antisense) [Compound 1074504]”, the “YAP1 (% UTC)” value is reported as 76 % UTC.
With “1074536 (antisense kA*kG*kT*dA*dA*dT*dA*dG*d[5mC]*dT*d[5mC]*dT*dT*kT*k[5mC]*kT) [Compound 1074536]” the “YAP1 (% UTC)” value was 6 % UTC.
In the case of “1074568 (antisense kG*kA*kA*d[5mC]*d[5mC]*dT*dA*d[5mC]*dT*d[5mC]*dA*d[5mC]*dT*kG*kA*kA) [Compound 1074568]”, the “YAP1 (% UTC)” value is reported as 12 % UTC.

Same assay, conditions: Table 23; Yap1 mRNA as percent of untreated control; 3-10-3 cEt gapmers; single dose
In the case of “1074473 (k[5mC]*kA*kA*d[5mC]*d[5mC]*d[5mC]*d[5mC]*d[5mC]*d[5mC]*d[5mC]*dA*d[5mC]*d[5mC]*kG*kA*k[5mC]; antisense) [Compound 1074473]”, the “YAP1 (% UTC)” value is reported as 82 % UTC.
“1074505 (kA*kA*kT*d[5mC]*dG*dA*dG*dA*dT*dT*dT*dA*dA*kA*kT*kA; antisense) [Compound 1074505]” was tested, and the “YAP1 (% UTC)” value was 83 % UTC.
“1074537 (antisense k[5mC]*kA*kG*dT*dA*dA*dT*dA*dG*d[5mC]*dT*d[5mC]*dT*kT*kT*k[5mC]) [Compound 1074537]” was tested, and the “YAP1 (% UTC)” value was 3 % UTC.
With “1074569 (antisense kT*kG*kA*dA*d[5mC]*d[5mC]*dT*dA*d[5mC]*dT*d[5mC]*dA*d[5mC]*kT*kG*kA) [Compound 1074569]” the “YAP1 (% UTC)” value was 8 % UTC.

Same assay, conditions: Table 24; Yap1 mRNA as percent of untreated control; 3-10-3 cEt gapmers targeting SEQ ID NO.: 1, and 2
For “1074474 (k[5mC]*k[5mC]*kA*dA*d[5mC]*d[5mC]*d[5mC]*d[5mC]*d[5mC]*d[5mC]*d[5mC]*dA*d[5mC]*k[5mC]*kG*kA; antisense) [Compound 1074474]”, the “YAP1 (% UTC)” value was 71 % UTC.
“1074506 (kT*kA*kA*dT*d[5mC]*dG*dA*dG*dA*dT*dT*dT*dA*kA*kA*kT; antisense) [Compound 1074506]” was tested, and the “YAP1 (% UTC)” value was 107 % UTC.
For “1074538 (antisense kA*kT*k[5mC]*d[5mC]*dA*d[5mC]*dA*dG*dT*dA*dA*dT*dA*kG*k[5mC]*kT) [Compound 1074538]”, the “YAP1 (% UTC)” value was 31 % UTC.

Same assay, conditions: Table 25; Yap1 mRNA as percent of untreated control; 3-10-3 cEt gapmers targeting SEQ ID NO.: 1, and 2
For “1074475 (kA*k[5mC]*k[5mC]*dA*dA*d[5mC]*d[5mC]*d[5mC]*d[5mC]*d[5mC]*d[5mC]*d[5mC]*dA*k[5mC]*k[5mC]*kG; antisense) [Compound 1074475]”, the “YAP1 (% UTC)” value was 72 % UTC.
With “1074507 (kA*kT*kA*dA*dT*d[5mC]*dG*dA*dG*dA*dT*dT*dT*kA*kA*kA; antisense) [Compound 1074507]” the “YAP1 (% UTC)” value was 74 % UTC.
In the case of “1074539 (antisense k[5mC]*kT*kA*dT*d[5mC]*d[5mC]*dA*d[5mC]*dA*dG*dT*dA*dA*kT*kA*kG) [Compound 1074539]”, the “YAP1 (% UTC)” value is reported as 62 % UTC.

Same assay, conditions: Table 32; Yap1 mRNA, percent of untreated control; 3-10-3 cEt gapmers targeting SEQ ID NO.: 1, and 2
For “1074482 (kT*kA*kA*dT*dA*dT*dG*dG*dT*d[5mC]*dA*dT*dT*kT*kG*k[5mC]; antisense) [compound 1074482]”, the “YAP1 (% UTC)” value was 12 % UTC.
For “1074514 (kA*kA*kG*dG*dA*dT*dA*d[5mC]*dA*dT*dT*d[5mC]*d[5mC]*kA*k[5mC]*kT; antisense) [compound 1074514]”, the “YAP1 (% UTC)” value was 25 % UTC.
For “1074546 (k[5mC]*kA*k[5mC]*dT*d[5mC]*d[5mC]*d[5mC]*d[5mC]*dT*dA*dG*dG*d[5mC]*kA*k[5mC]*kT; antisense) [compound 1074546]”, the “YAP1 (% UTC)” value was 33 % UTC.

Same assay, conditions: Table 33; Yap1 mRNA, percent of untreated control; 3-10-3 cEt gapmers targeting SEQ ID NO.: 1, and 2
“1074483 (k[5mC]*kA*k[5mC]*dT*dA*dA*dT*dA*dT*dG*dG*dT*d[5mC]*kA*kT*kT; antisense) [compound 1074483]” was tested, and the “YAP1 (% UTC)” value was 15 % UTC.
For “1074515 (kT*kA*kA*d[5mC]*dT*dG*dG*dA*dA*dA*dG*d[5mC]*dA*kG*kG*kG; antisense) [compound 1074515]”, the “YAP1 (% UTC)” value was 9 % UTC.
In the case of “1074547 (kG*kA*kG*d[5mC]*dA*d[5mC]*dT*d[5mC]*d[5mC]*d[5mC]*d[5mC]*dT*dA*kG*kG*k[5mC]; antisense) [compound 1074547]”, the “YAP1 (% UTC)” value is reported as 71 % UTC.

Same assay, conditions: Yap1 mRNA as percent of untreated control; A-431 cells; 3-10-3 cEt gapmers targeting SEQ ID NO.: 1, and 2; Table 30
With “1074512 (kG*kG*kA*dT*dA*d[5mC]*dA*dT*dT*d[5mC]*d[5mC]*dA*d[5mC]*kT*kA*k[5mC]; antisense) [compound 1074512]” the “YAP1 (% UTC)” value was 64 % UTC.
For “1074544 (k[5mC]*kT*k[5mC]*d[5mC]*d[5mC]*d[5mC]*dT*dA*dG*dG*d[5mC]*dA*d[5mC]*kT*kA*kT; antisense) [compound 1074544]”, the “YAP1 (% UTC)” value was 34 % UTC.

Same assay, conditions: Yap1 mRNA as percent of untreated control; A-431 cells; 3-10-3 cEt gapmers targeting SEQ ID NO.: 1, and 2; Table 31
For “1074481 (kA*kA*kT*dA*dT*dG*dG*dT*d[5mC]*dA*dT*dT*dT*kG*k[5mC]*k[5mC]; antisense) [compound 1074481]”, the “YAP1 (% UTC)” value was 14 % UTC.
In the case of “1074513 (kA*kG*kG*dA*dT*dA*d[5mC]*dA*dT*dT*d[5mC]*d[5mC]*dA*k[5mC]*kT*kA; antisense) [compound 1074513]”, the “YAP1 (% UTC)” value is reported as 47 % UTC.
With “1074545 (kA*k[5mC]*kT*d[5mC]*d[5mC]*d[5mC]*d[5mC]*dT*dA*dG*dG*d[5mC]*dA*k[5mC]*kT*kA; antisense) [compound 1074545]” the “YAP1 (% UTC)” value was 18 % UTC.
